From patent publication US9084794B2, “Fatty acid synthase inhibitors” (GlaxoSmithKline Intellectual Property (No. 2) Limited, priority 2011, dated 2015) come the findings set out here.

Molecules are shown by their SMILES.

The experiment concerns the target FAS (Homo sapiens, UniProt P49327). In words: FAS activity inhibition (Assay #1 residual NADPH/resazurin or Assay #2 CoA/CPM thio-reactive dye). Format: biochemical. Particulars: measured through one of the two assays, at least one experiment or the average of multiple experiments. The protocol: FAS activity was measured through one of the two following assays.
Inhibition of FAS activity can be measured based on the detection of residual NADPH substrate after the FAS assay is quenched. This assay is run as a 10 μL endpoint assay in 384-well format, where the reaction contains 20 μM malonyl-CoA, 2 μM acetyl-CoA, 30 μM NADPH and 40 nM FAS in 50 mM sodium phosphate, pH 7.0. The assay is run by sequentially dispensing 5 μl of a malonyl-CoA solution, then enzyme solution Containing the acetyl-CoA, and NADPH) into a black, low volume assay plate (Greiner 784076) pre-dispensed with 100 nL compound solutions in DMSO. The reaction is incubated at ambient temperature for 60 minutes, then quenched with 5 μL, of a developing solution composed of 90 μM resazurin, 0.3 IU/ml diaphorase in 50 mM sodium phosphate, pH 7.0. The developed reaction is read on a Molecular Devices Analyst or Acquest (or equivalent) plate reader using a 530 nm excitation wavelength filter, a 580 nm emission filter, and 561 nm dichroic filter. The test compounds are prepared in neat DMSO at a concentration of 10 mM. For inhibition curves, compounds are diluted using a three fold serial dilution and tested at 11 concentrations (e.g. 25 μM-0.42 nM). Curves are analysed using ActivityBase and XLfit, and results are expressed as pIC50 values.
Inhibition of FAS can also be quantified based on the detection of the CoA products with a thio-reactive coumarin dye. This assay is run as a […] assay in 384-well format, where the reaction contains 20 μM malonyl-CoA, 20 μM acetyl-CoA, 40 μM NADPH and 2 nM FAS in 50 mM sodium phosphate, pH 7.0, and 0.04% Tween-20. The assay is run by adding […] enzyme solution to a black, low volume assay plate (Greiner 784076) pre-dispensed with 100 nl compound solutions in DMSO. After 30 minutes, 5 μL substrate is added, and the reaction incubated at ambient temperature for an additional 60 minutes. The reaction is then quenched with 100 μL of 6M guanidine-HCl containing 50 μM CPM (7-diethylamino-3-(4′-maleimidylphenyl)-4-methylcoumarin CPM; thio-reactive dye), and incubated for 30 minutes. The plate is read on an Envision (PerkinElmer) or equivalent plate reader using a 380 nm excitation wavelength filter, and a 486 nm emission filter. Data fitting and compound preparations are done as described above.

Sequence of FAS (P49327 whole entry): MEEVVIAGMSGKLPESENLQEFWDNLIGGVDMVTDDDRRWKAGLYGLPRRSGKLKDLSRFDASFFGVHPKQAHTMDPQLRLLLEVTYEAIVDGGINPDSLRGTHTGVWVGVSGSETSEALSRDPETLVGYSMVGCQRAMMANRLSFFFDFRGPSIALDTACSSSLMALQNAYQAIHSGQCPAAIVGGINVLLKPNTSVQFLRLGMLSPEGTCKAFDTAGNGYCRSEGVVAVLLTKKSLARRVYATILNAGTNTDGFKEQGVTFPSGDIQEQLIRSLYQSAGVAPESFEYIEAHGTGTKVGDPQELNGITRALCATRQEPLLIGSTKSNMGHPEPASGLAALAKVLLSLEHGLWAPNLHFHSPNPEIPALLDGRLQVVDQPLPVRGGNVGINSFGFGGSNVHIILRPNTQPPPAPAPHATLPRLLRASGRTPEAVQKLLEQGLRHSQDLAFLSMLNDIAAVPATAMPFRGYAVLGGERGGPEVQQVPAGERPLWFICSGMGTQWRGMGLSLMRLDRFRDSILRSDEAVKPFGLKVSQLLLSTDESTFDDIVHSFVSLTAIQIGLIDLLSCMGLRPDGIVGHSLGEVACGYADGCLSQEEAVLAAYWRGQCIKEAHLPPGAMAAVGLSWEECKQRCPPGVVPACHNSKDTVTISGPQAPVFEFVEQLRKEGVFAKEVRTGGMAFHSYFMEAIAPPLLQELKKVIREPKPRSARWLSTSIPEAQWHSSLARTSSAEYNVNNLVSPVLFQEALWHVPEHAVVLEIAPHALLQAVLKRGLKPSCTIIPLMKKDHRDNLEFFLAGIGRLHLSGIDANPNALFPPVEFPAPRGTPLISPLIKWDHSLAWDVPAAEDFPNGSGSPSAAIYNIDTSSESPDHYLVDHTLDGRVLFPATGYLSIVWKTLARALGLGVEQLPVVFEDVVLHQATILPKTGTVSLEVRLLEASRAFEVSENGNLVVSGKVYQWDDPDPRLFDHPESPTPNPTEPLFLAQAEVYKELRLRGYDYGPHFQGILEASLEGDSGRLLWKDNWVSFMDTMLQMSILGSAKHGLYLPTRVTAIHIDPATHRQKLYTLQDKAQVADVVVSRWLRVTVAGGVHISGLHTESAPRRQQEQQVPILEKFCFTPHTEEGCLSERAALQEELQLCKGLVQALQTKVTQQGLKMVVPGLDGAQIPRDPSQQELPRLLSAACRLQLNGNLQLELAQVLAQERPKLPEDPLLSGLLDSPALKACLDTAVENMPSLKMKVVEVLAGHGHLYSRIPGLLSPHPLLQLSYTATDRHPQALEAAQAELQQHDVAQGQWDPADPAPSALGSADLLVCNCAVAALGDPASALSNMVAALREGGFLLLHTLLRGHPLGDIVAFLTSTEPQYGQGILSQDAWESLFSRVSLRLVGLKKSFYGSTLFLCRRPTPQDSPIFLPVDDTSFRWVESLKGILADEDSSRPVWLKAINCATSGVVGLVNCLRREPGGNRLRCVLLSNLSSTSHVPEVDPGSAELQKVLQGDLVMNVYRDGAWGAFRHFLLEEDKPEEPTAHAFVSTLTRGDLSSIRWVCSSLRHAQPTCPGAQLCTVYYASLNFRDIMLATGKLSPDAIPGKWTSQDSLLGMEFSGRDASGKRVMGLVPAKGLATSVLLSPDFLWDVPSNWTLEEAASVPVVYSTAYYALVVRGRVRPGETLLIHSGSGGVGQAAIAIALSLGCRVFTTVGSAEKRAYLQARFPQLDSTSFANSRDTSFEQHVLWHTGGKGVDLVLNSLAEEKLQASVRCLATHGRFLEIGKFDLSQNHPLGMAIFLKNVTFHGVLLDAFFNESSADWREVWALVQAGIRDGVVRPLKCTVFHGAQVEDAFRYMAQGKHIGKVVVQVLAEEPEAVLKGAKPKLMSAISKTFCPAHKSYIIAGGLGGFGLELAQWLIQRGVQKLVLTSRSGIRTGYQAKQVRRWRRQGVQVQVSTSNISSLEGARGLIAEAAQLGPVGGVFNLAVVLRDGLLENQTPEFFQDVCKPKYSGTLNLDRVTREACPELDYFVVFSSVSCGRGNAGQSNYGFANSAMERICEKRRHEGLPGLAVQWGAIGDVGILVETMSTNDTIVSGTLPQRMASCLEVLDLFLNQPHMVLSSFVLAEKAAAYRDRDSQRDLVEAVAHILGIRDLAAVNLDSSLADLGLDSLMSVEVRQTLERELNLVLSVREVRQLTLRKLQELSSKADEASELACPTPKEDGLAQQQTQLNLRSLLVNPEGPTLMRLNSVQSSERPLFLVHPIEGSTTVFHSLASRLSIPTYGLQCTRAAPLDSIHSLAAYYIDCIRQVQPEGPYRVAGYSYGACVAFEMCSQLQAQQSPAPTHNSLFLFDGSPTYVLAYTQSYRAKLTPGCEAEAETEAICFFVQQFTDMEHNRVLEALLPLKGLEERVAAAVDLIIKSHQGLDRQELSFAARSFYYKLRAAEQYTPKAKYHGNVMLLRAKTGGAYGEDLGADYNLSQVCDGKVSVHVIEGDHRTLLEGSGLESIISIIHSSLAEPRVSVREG

One may read the IC50 as the point on the concentration scale where inhibition reaches its midpoint. A high value points to weaker potency. Take `COc1c(-c2ccc(C(C(N)=O)N3CCC4(CC3)CN(C3CC3)C(=O)CO4)c(F)c2)ccc2cccnc12` (single isomer, unassigned; (-)) [Example 78, (−)-2-(4-cyclopropyl-3-oxo-1-oxa-4,9-diazaspiro[5.5]undecan-9-yl)-2-(2-fluoro-4-(8-methoxyquinolin-7-yl)phenyl)acetamide]: half-maximal inhibition (IC50) required 4 nM. With `NC(=O)C(c1ccc(-c2ccc3cccnc3c2)cc1F)N1CCC2(CC1)CN(C1(CO)CC1)C(=O)CO2` (single isomer, unassigned; (-)) [Example 30, (−)-2-(2-fluoro-4-(quinolin-7-yl)phenyl)-2-(4-(1-(hydroxymethyl)cyclopropyl)-3-oxo-1-oxa-4,9-diazaspiro[5.5]undecan-9-yl)acetamide], the half-maximal inhibitory concentration (IC50) was found to be 3 nM. As to `O=C1COC2(CCN(C(CO)c3ccc(-c4ccc5cccnc5c4)cc3)CC2)CN1C1CC1` (racemic) [Example 22, 4-cyclopropyl-9-(2-hydroxy-1-(4-(quinolin-7-yl)phenyl)ethyl)-1-oxa-4,9-diazaspiro[5.5]undecan-3-one], the IC50 is 20 nM.

Consider `NC(=O)C(c1c(F)cc(-c2ccc3cccnc3c2)cc1F)N1CCC2(CC1)CN(C1CC1)C(=O)CO2` (single isomer, unassigned; (+)) [Example 73, (+)-2-(4-cyclopropyl-3-oxo-1-oxa-4,9-diazaspiro[5.5]undecan-9-yl)-2-(2,6-difluoro-4-(quinolin-7-yl)phenyl)acetamide], for which the concentration for half-maximal inhibition (IC50) turned out to be 1 nM. The figure for `CC(c1ccc(-c2ccc3cccnc3c2)cc1)N1CCC2(CC1)CN(C1CC1)C(=O)CO2` (centres unmarked) [Example 13, 4-cyclopropyl-9-(1-(4-(quinolin-7-yl)phenyl)ethyl)-1-oxa-4,9-diazaspiro[5.5]undecan-3-one] is 50 nM. Molecule `NC(=O)C(c1ccc(-c2ccc3cccnc3c2)cc1F)N1CCC2(CC1)CN(C1CC1)C(=O)CO2` (single isomer, unassigned; (+)) [Example 9, (+)-2-(4-cyclopropyl-3-oxo-1-oxa-4,9-diazaspiro[5.5]undec-9-yl)-2-[2-fluoro-4-(7-quinolinyl)phenyl]acetamide] showed a half-maximal inhibitory concentration (IC50) of 3 nM. The figure for `O=C(O)CC(c1ccc(-c2ccc3cccnc3c2)cc1)N1CCC2(CC1)CN(C1CC1)C(=O)CO2` (centres unmarked) [Example 6, 3-(4-cyclopropyl-3-oxo-1-oxa-4,9-diazaspiro[5.5]undecan-9-yl)-3-(4-(quinolin-7-yl)phenyl)propanoic acid] is 501 nM; for `COc1ccc(-c2ccc(C(C(N)=O)N3CCC4(CC3)CN(C3CC3)C(=O)CO4)c(F)c2)cc1` (centres unmarked) [Example 33, 2-(4-cyclopropyl-3-oxo-1-oxa-4,9-diazaspiro[5.5]undecan-9-yl)-2-(3-fluoro-4′-methoxy-[1,1′-biphenyl]-4-yl)acetamide] it is 200 nM.
